From article PMC4850295, “Using a Genetically Encoded Sensor to Identify Inhibitors of Toxoplasma gondii Ca^2+ Signaling” (The Journal of Biological Chemistry, 2016) come the findings set out here.

This experiment has as its system T1, GCaMP5-expressing T. gondii.
T1 construct: whole extracellular parasites expressing GCaMP5 Ca2+ sensor
Details: species or system GCaMP5-expressing Toxoplasma gondii, extracellular; GCaMP5 fluorescence (cytosolic Ca2+) after 100 uM zaprinast in compound-pretreated extracellular parasites, background-subtracted, relative to zaprinast alone. Particulars: 100 uM zaprinast stimulation; 10 min pretreatment; mean of two replicates; 0.23 h. The gist of the method:
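Extracellular GCaMP5-expressing parasites in Ringer's solution were pretreated with compounds (single 10 μM dose, two biological replicates) for 10 min, then stimulated with 100 μM zaprinast at 37 °C for 4 min. Fluorescence read at 485/525 nm, basal subtracted, expressed as fold change relative to zaprinast-only parasites.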
For `Fc1cc(Cl)ccc1Nc1ccnc2cc(-c3ccc(CN4CCOCC4)o3)ccc12` [GW560109X], the “fold change in fluorescence relative to zaprinast alone” value was 0.545.
With `CN(c1ccc(NC(=O)Nc2ccc(OC(F)(F)F)cc2)cc1)c1ccnc(Nc2cccc(S(N)(=O)=O)c2)n1` [GW806742X], the “fold change in fluorescence relative to zaprinast alone” value came to 0.4394.
For `Cn1nc(-c2ccc(NC(=O)Nc3ccc4ccccc4c3)c(F)c2)c2cnc(NCCN3CCOCC3)nc21` [SB-750250-M], the “fold change in fluorescence relative to zaprinast alone” value came to 1.757.
For the molecule `O=C(Nc1n[nH]c2cc(-c3ccc(F)cc3)ccc12)C1CC1` [SB-735467], the “fold change in fluorescence relative to zaprinast alone” value is listed as 0.9628.
For the molecule `Cc1ccc2c(c1)/C(=N/Nc1ccc(S(N)(=O)=O)cc1)C(=O)N2` [GW275944X], the “fold change in fluorescence relative to zaprinast alone” value is 1.616.
Then `Nc1nccc(-c2c(-c3ccc(F)cc3)ncn2C2CCN(CC(F)(F)F)CC2)n1` [SB-236560], with 0.7968; and `CN1CCC(n2cnc(-c3ccc(F)cc3)c2-c2ccnc(NCCO)n2)CC1` [SB-226879], with 1.236; and `N#Cc1cccc(Nc2nccc(-c3cnn4ncccc34)n2)c1` [GW778894X], with 0.1658.
Then `C[C@@H](Oc1cc(-n2cnc3cc(-c4cnn(C)c4)ccc32)sc1C(N)=O)c1ccccc1Cl` [GSK580432A], with 1.313.
On to `Nc1ncnc2c1nc(-c1ccccc1)n2-c1ccccc1` [SKF-97293], for which the “fold change in fluorescence relative to zaprinast alone” value is 1.205.
Consider `Fc1cccc(COc2ccc(Nc3ncnc4sc(-c5ccc[nH]5)cc34)cc2Cl)c1` [GW707818B], for which the “fold change in fluorescence relative to zaprinast alone” value is 0.2741.
For `O=c1[nH]ccc2nc(N[C@@H]3CCNC3)nc(Nc3ccc4c(c3)S(=O)(=O)CC4)c12` [GSK2181306A], the “fold change in fluorescence relative to zaprinast alone” value is 1.236.
Take `COC(=O)c1cccc(NC(=O)NCCNc2ccnc(Nc3ccc(F)cc3)n2)c1` [GSK1379883A]: the “fold change in fluorescence relative to zaprinast alone” value stood at 0.8839.
Then `Cc1ccc(NC(=O)c2ccc(Cl)c(Cl)c2)cc1-c1ccc(C(=O)Nc2ccncc2)cc1` [GSK1398460A], with 1.557.
Then `FC(F)(F)c1ccc(-c2ncn(CCCN3CCOCC3)c2-c2ccncc2)cc1` [SB-217780], with 0.91; and `NS(=O)(=O)c1ccc(N/N=C2\C(=O)Nc3ccc(C(=O)NCCCn4ccnc4)cc32)cc1` [GW290597X], with 1.214.
For `Fc1cc(Cl)ccc1Nc1ccnc2cc(-c3ccc(CN4CCSCC4)o3)ccc12` [GW560106X], the “fold change in fluorescence relative to zaprinast alone” value is 0.6773.
As to `CCn1c(-c2nonc2N)nc2c(C#CC(C)(C)O)nc(CN3CCCC3)cc21` [GSK1000163A], the “fold change in fluorescence relative to zaprinast alone” value stood at 1.153.
For the molecule `Nc1ncnc2c1ncn2-c1cccc2ccccc12` [SKF-97184], the “fold change in fluorescence relative to zaprinast alone” value was 0.9854.
As for `CN(C)CCNS(=O)(=O)c1ccc(-c2ccnc3[nH]ccc23)cc1` [GSK977620A], the “fold change in fluorescence relative to zaprinast alone” value came to 1.218.
Then `CC(C)c1nc(-c2cccc(NS(=O)(=O)c3c(F)cccc3F)c2)c(-c2ccnc(Nc3ccc(N4CCOCC4)nc3)n2)s1` [GSK1723980B], with 0.6316.
With `O=C(Nc1n[nH]c2nc(-c3nccs3)c(Br)cc12)C1CC1` [SB-742251], the “fold change in fluorescence relative to zaprinast alone” value was 1.325.
In the case of `CC(C)c1nc(-c2ccc(F)c(NS(=O)(=O)c3c(F)cccc3F)c2)c(-c2ccnc(Nc3ccc(N4CCOCC4)nc3)n2)s1` [GSK1804250A], the “fold change in fluorescence relative to zaprinast alone” value is listed as 1.361.
On to `Cc1ccccc1CC(=O)N1CCc2cc(-c3cn(C)c4ncnc(N)c34)ccc21` [GSK2603346A], for which the “fold change in fluorescence relative to zaprinast alone” value amounted to 1.278.
For the molecule `Nc1ncc(-c2cccnc2)c2scc(-c3ccc4c(c3)CCN4C(=O)Cc3ccccc3)c12` [GSK683281A], the “fold change in fluorescence relative to zaprinast alone” value is reported as 1.385.
